Source: patent publication US20220175693A1, “DIETARY SUPPLEMENT COMPRISING LUTEIN FOR TELOMERE PROTECTION, AND METHOD FOR PRODUCTION THEREOF” (BIOGEN EXTRACTS PRIVATE LIMITED, priority 2019, published 2022)

Tested on: human adult primary fibroblast cells
Assay: Proliferative analysis (population doubling, cell counts per passage) under standard and oxidative stress conditions
Format: cell-based
Protocol: Analysis of cellular proliferation rate and telomere length in cultures of human adult primary fibroblast cells treated with lutein under standard and oxidative stress conditions. Primary cultures of adult human fibroblast were established. Cells are seeded at 2×10^3 cells/cm2 in GlutaMax™ high glucose Dulbecco's modified Eagle's medium (DMEM, Gibco®), and supplemented with 10% fetal bovine serum (FBS, HyClone, Thermo Scientific), penicillin (100 U/ml) and reptomycin (1000 U/ml). Media is renewed every 2-3 days and cells passaged at sub-confluence (70-80%) every 4-5 days. Compounds or vehicle control are added to the cells in culture. Cell growth is monitored for each condition by counting cell numbers at each passage using a Countess™ cell counter (Invitrogen). Population doubling (PD) was calculated with the formula PD=(log (Nn/Nn-1))/log 2 where n is the passage; and N the number of cells. One PD is equivalent to one round of cell replication. Eight independent condition were evaluated by proliferative Analysis: Standard cell culture condition+Lutein−10 μg/ml (LUT10) Standard cell culture condition+Lutein−5 μg/ml (LUT5) Standard cell culture condition+Lutein−1 μg/ml (LUT1) Standard cell culture condition+Lutein−10 μg/ml+10 μM H2O2 (LUT10+H2O2) Standard cell culture condition+Lutein−5 μg/ml+10 μM H2O2(LUT5+H2O2) Standard cell culture condition+Lutein−1 μg/ml+10 μM H2O2 (LUT1+H2O2) Cells were expanded during eight weeks under standard and oxidative (10 μM H2O2) cell culture condition as described previously. Fresh treatments were prepared and added to the cells at every passage and also when media was renewed. Stock solution of 10 mg/ml of the compound was prepared in DMSO and the different treatments were prepared from that stock.

[1] = Lutein 1 μg/ml + 10 μM H2O2, week 1 (P1)
[2] = Lutein 1 μg/ml + 10 μM H2O2, week 2 (P2)
[3] = Lutein 1 μg/ml + 10 μM H2O2, week 3 (P3)
[4] = Lutein 1 μg/ml + 10 μM H2O2, week 4 (P4)
[5] = Lutein 1 μg/ml + 10 μM H2O2, week 5 (P5)
[6] = Lutein 1 μg/ml + 10 μM H2O2, week 6 (P6)
[7] = Lutein 1 μg/ml + 10 μM H2O2, week 7 (P7)
[8] = Lutein 1 μg/ml + 10 μM H2O2, week 8 (P8)
[9] = Lutein 1 μg/ml, standard culture, week 1 (P1)
[10] = Lutein 1 μg/ml, standard culture, week 2 (P2)
[11] = Lutein 1 μg/ml, standard culture, week 3 (P3)
[12] = Lutein 1 μg/ml, standard culture, week 4 (P4)
[13] = Lutein 1 μg/ml, standard culture, week 5 (P5)
[14] = Lutein 1 μg/ml, standard culture, week 6 (P6)
[15] = Lutein 1 μg/ml, standard culture, week 7 (P7)
[16] = Lutein 1 μg/ml, standard culture, week 8 (P8)
[17] = Lutein 5 μg/ml + 10 μM H2O2, week 1 (P1)
[18] = Lutein 5 μg/ml + 10 μM H2O2, week 2 (P2)
[19] = Lutein 5 μg/ml + 10 μM H2O2, week 3 (P3)
[20] = Lutein 5 μg/ml + 10 μM H2O2, week 4 (P4)
[21] = Lutein 5 μg/ml + 10 μM H2O2, week 5 (P5)
[22] = Lutein 5 μg/ml + 10 μM H2O2, week 6 (P6)
[23] = Lutein 5 μg/ml + 10 μM H2O2, week 7 (P7)
[24] = Lutein 5 μg/ml + 10 μM H2O2, week 8 (P8)
[25] = Lutein 5 μg/ml, standard culture, week 1 (P1)
[26] = Lutein 5 μg/ml, standard culture, week 2 (P2)
[27] = Lutein 5 μg/ml, standard culture, week 3 (P3)
[28] = Lutein 5 μg/ml, standard culture, week 4 (P4)
[29] = Lutein 5 μg/ml, standard culture, week 5 (P5)
[30] = Lutein 5 μg/ml, standard culture, week 6 (P6)
[31] = Lutein 5 μg/ml, standard culture, week 7 (P7)
[32] = Lutein 5 μg/ml, standard culture, week 8 (P8)
[33] = Lutein 10 μg/ml + 10 μM H2O2, week 1 (P1)
[34] = Lutein 10 μg/ml + 10 μM H2O2, week 2 (P2)
[35] = Lutein 10 μg/ml + 10 μM H2O2, week 3 (P3)
[36] = Lutein 10 μg/ml + 10 μM H2O2, week 4 (P4)
[37] = Lutein 10 μg/ml + 10 μM H2O2, week 5 (P5)
[38] = Lutein 10 μg/ml + 10 μM H2O2, week 6 (P6)
[39] = Lutein 10 μg/ml + 10 μM H2O2, week 7 (P7)
[40] = Lutein 10 μg/ml + 10 μM H2O2, week 8 (P8)
[41] = Lutein 10 μg/ml, standard culture, week 1 (P1)
[42] = Lutein 10 μg/ml, standard culture, week 2 (P2)
[43] = Lutein 10 μg/ml, standard culture, week 3 (P3)
[44] = Lutein 10 μg/ml, standard culture, week 4 (P4)
[45] = Lutein 10 μg/ml, standard culture, week 5 (P5)
[46] = Lutein 10 μg/ml, standard culture, week 6 (P6)
[47] = Lutein 10 μg/ml, standard culture, week 7 (P7)
[48] = Lutein 10 μg/ml, standard culture, week 8 (P8)

CC1=C[C@H](O)CC(C)(C)[C@H]1/C=C/C(C)=C/C=C/C(C)=C/C=C/C=C(C)/C=C/C=C(C)/C=C/C1=C(C)C[C@@H](O)CC1(C)C [Lutein]
Cumulative Population Doubling per passage [1]: 3.42
Population Doubling per passage [1]: 3.42
Total number of cells per passage [1]: 1.60E+06
Cumulative Population Doubling per passage [2]: 6.29
Population Doubling per passage [2]: 2.87
Total number of cells per passage [2]: 1.17E+07
Cumulative Population Doubling per passage [3]: 9.16
Population Doubling per passage [3]: 2.37
Total number of cells per passage [3]: 8.60E+07
Cumulative Population Doubling (Table 7A) (Lutein 1 μg/ml + 10 μM H2O2, week 4): 12.3
Cumulative Population Doubling per passage [4]: 12.28
Population Doubling per passage [4]: 3.12
Total number of cells per passage [4]: 7.46E+08
Cumulative Population Doubling per passage [5]: 14.76
Population Doubling per passage [5]: 2.49
Total number of cells per passage [5]: 4.18E+09
Cumulative Population Doubling per passage [6]: 17.41
Population Doubling per passage [6]: 2.65
Total number of cells per passage [6]: 2.62E+10
Cumulative Population Doubling per passage [7]: 18.41
Population Doubling per passage [7]: 1.00
Total number of cells per passage [7]: 5.23E+10
Cumulative Population Doubling (Table 7A) (Lutein 1 μg/ml + 10 μM H2O2, week 8): 20.7
Cumulative Population Doubling per passage [8]: 20.72
Population Doubling per passage [8]: 2.30
Total number of cells per passage [8]: 2.58E+11
Cumulative Population Doubling per passage [9]: 3.81
Population Doubling per passage [9]: 3.81
Total number of cells per passage [9]: 2.10E+06
Cumulative Population Doubling per passage [10]: 7.31
Population Doubling per passage [10]: 3.50
Total number of cells per passage [10]: 2.38E+07
Cumulative Population Doubling per passage [11]: 10.18
Population Doubling per passage [11]: 3.57
Total number of cells per passage [11]: 1.75E+08
Cumulative Population Doubling (Table 7A) (Lutein 1 μg/ml, standard culture, week 4): 13.7
Cumulative Population Doubling per passage [12]: 13.69
Population Doubling per passage [12]: 3.50
Total number of cells per passage [12]: 1.98E+09
Cumulative Population Doubling per passage [13]: 15.71
Population Doubling per passage [13]: 2.02
Total number of cells per passage [13]: 8.04E+09
Cumulative Population Doubling per passage [14]: 18.71
Population Doubling per passage [14]: 3.00
Total number of cells per passage [14]: 6.44E+10
Cumulative Population Doubling per passage [15]: 21.39
Population Doubling per passage [15]: 2.68
Total number of cells per passage [15]: 4.12E+11
Cumulative Population Doubling (Table 7A) (Lutein 1 μg/ml, standard culture, week 8): 24.1
Cumulative Population Doubling per passage [16]: 24.13
Population Doubling per passage [16]: 2.74
Total number of cells per passage [16]: 2.75E+12
Cumulative Population Doubling per passage [17]: 3.58
Population Doubling per passage [17]: 3.58
Total number of cells per passage [17]: 1.80E+06
Cumulative Population Doubling per passage [18]: 6.91
Population Doubling per passage [18]: 3.32
Total number of cells per passage [18]: 1.80E+07
Cumulative Population Doubling per passage [19]: 10.13
Population Doubling per passage [19]: 3.22
Total number of cells per passage [19]: 1.68E+08
Cumulative Population Doubling (Table 7A) (Lutein 5 μg/ml + 10 μM H2O2, week 4): 13.5
Cumulative Population Doubling per passage [20]: 13.54
Population Doubling per passage [20]: 3.42
Total number of cells per passage [20]: 1.79E+09
Cumulative Population Doubling per passage [21]: 15.70
Population Doubling per passage [21]: 2.16
Total number of cells per passage [21]: 8.00E+09
Cumulative Population Doubling per passage [22]: 17.84
Population Doubling per passage [22]: 2.14
Total number of cells per passage [22]: 3.52E+10
Cumulative Population Doubling per passage [23]: 20.71
Population Doubling per passage [23]: 2.87
Total number of cells per passage [23]: 2.58E+11
Cumulative Population Doubling (Table 7A) (Lutein 5 μg/ml + 10 μM H2O2, week 8): 23.1
Cumulative Population Doubling per passage [24]: 23.06
Population Doubling per passage [24]: 2.34
Total number of cells per passage [24]: 1.31E+12
Cumulative Population Doubling per passage [25]: 3.81
Population Doubling per passage [25]: 3.81
Total number of cells per passage [25]: 2.10E+06
Cumulative Population Doubling per passage [26]: 6.47
Population Doubling per passage [26]: 2.65
Total number of cells per passage [26]: 1.33E+07
Cumulative Population Doubling per passage [27]: 9.12
Population Doubling per passage [27]: 2.65
Total number of cells per passage [27]: 8.33E+07
Cumulative Population Doubling (Table 7A) (Lutein 5 μg/ml, standard culture, week 4): 12.5
Cumulative Population Doubling per passage [28]: 12.53
Population Doubling per passage [28]: 3.42
Total number of cells per passage [28]: 8.89E+09
Cumulative Population Doubling per passage [29]: 15.02
Population Doubling per passage [29]: 2.49
Total number of cells per passage [29]: 4.98E+09
Cumulative Population Doubling per passage [30]: 16.47
Population Doubling per passage [30]: 1.45
Total number of cells per passage [30]: 1.36E+10
Cumulative Population Doubling per passage [31]: 18.15
Population Doubling per passage [31]: 1.68
Total number of cells per passage [31]: 4.35E+10
Cumulative Population Doubling (Table 7A) (Lutein 5 μg/ml, standard culture, week 8): 21.3
Cumulative Population Doubling per passage [32]: 21.26
Population Doubling per passage [32]: 3.12
Total number of cells per passage [32]: 3.77E+11
Cumulative Population Doubling per passage [33]: 3.50
Population Doubling per passage [33]: 3.50
Total number of cells per passage [33]: 1.70E+06
Cumulative Population Doubling per passage [34]: 6.92
Population Doubling per passage [34]: 3.42
Total number of cells per passage [34]: 1.81E+07
Cumulative Population Doubling per passage [35]: 9.65
Population Doubling per passage [35]: 2.74
Total number of cells per passage [35]: 1.21E+08
Cumulative Population Doubling (Table 7A) (Lutein 10 μg/ml + 10 μM H2O2, week 4): 13.1
Cumulative Population Doubling per passage [36]: 13.07
Population Doubling per passage [36]: 3.42
Total number of cells per passage [36]: 1.29E+09
Cumulative Population Doubling per passage [37]: 14.97
Population Doubling per passage [37]: 1.90
Total number of cells per passage [37]: 4.81E+09
Cumulative Population Doubling per passage [38]: 16.97
Population Doubling per passage [38]: 2.00
Total number of cells per passage [38]: 1.93E+09
Cumulative Population Doubling per passage [39]: 18.52
Population Doubling per passage [39]: 1.55
Total number of cells per passage [39]: 5.65E+10
Cumulative Population Doubling (Table 7A) (Lutein 10 μg/ml + 10 μM H2O2, week 8): 20.8
Cumulative Population Doubling per passage [40]: 20.83
Population Doubling per passage [40]: 2.30
Total number of cells per passage [40]: 2.79E+11
Cumulative Population Doubling per passage [41]: 3.58
Population Doubling per passage [41]: 3.58
Total number of cells per passage [41]: 1.80E+06
Cumulative Population Doubling per passage [42]: 6.70
Population Doubling per passage [42]: 3.12
Total number of cells per passage [42]: 1.56E+07
Cumulative Population Doubling per passage [43]: 9.82
Population Doubling per passage [43]: 3.12
Total number of cells per passage [43]: 1.35E+08
Cumulative Population Doubling (Table 7A) (Lutein 10 μg/ml, standard culture, week 4): 13.3
Cumulative Population Doubling per passage [44]: 13.32
Population Doubling per passage [44]: 3.50
Total number of cells per passage [44]: 1.53E+09
Cumulative Population Doubling per passage [45]: 15.75
Population Doubling per passage [45]: 2.43
Total number of cells per passage [45]: 8.27E+09
Cumulative Population Doubling per passage [46]: 18.49
Population Doubling per passage [46]: 2.74
Total number of cells per passage [46]: 5.52E+10
Cumulative Population Doubling per passage [47]: 21.18
Population Doubling per passage [47]: 2.69
Total number of cells per passage [47]: 3.57E+11
Cumulative Population Doubling (Table 7A) (Lutein 10 μg/ml, standard culture, week 8): 23.9
Cumulative Population Doubling per passage [48]: 23.92
Population Doubling per passage [48]: 2.74
Total number of cells per passage [48]: 2.38E+12
Proliferation rate compared to control group (H2O2) (Lutein 10, 5 and 1 μg/ml + 10 μM H2O2 (oxidative culture conditions), after eight weeks): increase in proliferation rate
Proliferation rate compared to control (Ctrl) (Lutein 10, 5 and 1 μg/ml, standard culture conditions, after eight weeks): no difference
